Experimental data as given in US5153227A, “Phenylsulfonyl nitromethanes as aldose reductase inhibitors” (Imperial Chemical Industries PLC, priority 1987, dated 1992).

Target: T1, aldose reductase (Bos taurus, UniProt P16116)
T1 construct: partially purified aldose reductase is isolated in known manner from bovine lenses; from tissue; host or cells: bovine lenses
Test: in vitro inhibition of partially purified aldose reductase isolated from bovine lenses (reduction of glucose to sorbitol, spectrophotometric)
Format: biochemical
Conditions: in vitro test, bovine lens aldose reductase
Description: Thus, partially purified aldose reductase is isolated in known manner from bovine lenses. The percentage inhibition of this enzyme's ability in vitro to catalyse the reduction of aldoses to polyhydric alcohols, and particularly to reduce glucose to sorbitol, caused by a test compound is then determined using standard spectrophotometric methods.

O=[N+]([O-])CS(=O)(=O)c1cccc2ccccc12 [Example 1, (1-naphthylsulphonyl)nitromethane]
IC50: 320 nM
